Source: PMC7961587, “Novel Cell Permeable Polymers of N-Substituted L-2,3-Diaminopropionic Acid (DAPEGs) and Cellular Consequences of Their Interactions with Nucleic Acids” (International Journal of Molecular Sciences, 2021)

What was measured:
ssDNA (76 nt) fragment = experiment: Microscale thermophoresis (MST), ssDNA binding; design: species or system Homo sapiens; conditions: Monolith NT.115, 0.437 µM 5/6-FAM-labeled compound, EDBS buffer pH 8, 32 °C 1 h, scanned at 25 °C, at least two independent experiments, read-out: Binding constant, single-stranded DNA (MST)
Procedure: (§1) Figure 7 Microscale thermophoresis (MST) analysis of dsDNA binding by 5/6-FAM-labeled compounds. The MST analysis. FAM-labeled compounds 1a (A), 4a (B), 5a (C), and ssDNA binding by 5/6-FAM-labeled compounds 1a (E), 4a (F), 5a (G) was performed using the Monolith NT.115 instrument (NanoTemper). Binding was measured between increasing concentrations (6.1 nM–200 µM) of dsDNA (76 bp fragment) and 0.437 µM of the indicated compounds labeled with 5/6-FAM. Control experiments were performed with DNA and 5/6-FAM dye (D,H).
(§2) Figure 9 Microscale thermophoresis (MST) analysis of dsDNA binding by 5/6-FAM-labeled compounds. The MST analysis of dsDNA binding by 5/6-FAM-labeled compounds 13a (A) and 14a (B), and ssDNA binding by 5/6-FAM-labeled compounds 13a (D) and 14a (E) was performed using the Monolith NT.115 instrument (NanoTemper). Binding was measured between increasing concentration (6.1 nM–200 µM) of dsDNA (76 bp fragment) and 0.437 µM of the indicated compounds labeled with 5/6-FAM. A control experiment was performed with DNA and 5/6-FAM dye (C,F).
(§3) Microscale thermophoresis was performed using the Monolith NT.115 instrument (NanoTemper Technologies GmbH, Munich, Germany). Binding between dsDNA (76 bp) or ssDNA (76 nt) fragments and test compounds labeled with 5/6-FAM was measured. […] All data were analyzed using MO Affinity Analysis software (NanoTemper, Munich, Germany).

HB2 and MDA-MB-231 cells [1] = experiment: Cell permeability and localization by fluorescence microscopy; format: cell-based, human
Text: Preliminary cell permeability experiments facilitated the identification of three groups of compounds. […] The first group includes compound 4 and its derivatives (4a and 4b) and the family of compound 5 (5a and 5b). Compounds 4 and 5 are similar in structure and are composed of six residues of diaminopropionic acid (Dap) decorated with side chains of different lengths, terminating with the same highly positive guanidine moiety. […] Both compounds display unique cellular localization. […] We believe that such effective nuclear localisation of the first group of tested compounds is due to the effective mimicking of the nuclear localisation sequence (NLS). Such sequence consists of several positively charged lysines or arginines present in the protein structure. Additionally, side chain length of the polymer molecules seems to be a crucial factor that is optimal for compounds belonging to first group of polymers.
HB2 and MDA-MB-231 cells were seeded on 24-well plates at a density 1.5 × 10^4/well and 4 × 10^4/well, respectively, and incubated in 0.5 mL complete medium for 48 h. Subsequently, cells were washed with phosphate-buffered saline (PBS), and fresh medium with a fluorescently labeled peptide was added to each well at a concentration of 10 µM. For nucleus staining a DAPI solution (ThermoFisher Scientific, Waltham, MA, USA, […] R37606) in PBS was employed in conditions recommended by the supplier. After the incubation (2 h or 24 h), cells were washed thoroughly with PBS, and then a phenol red-free culture medium (FluoroBrite, DMEM) was added. Subsequently, the cells were examined using an Olympus IX51 fluorescence microscope (Olympus, Tokyo, Japan) using appropriate filters: blue for DAPI, green for FITC, and red TAMRA. Next, the images were merged and colocalization of the dyes’ emission were analyzed.

[2] = target: dsDNA (76 bp fragment) containing the sequence of beta-actin; experiment: Microscale thermophoresis (MST), dsDNA binding; design: species or system Homo sapiens; conditions: Monolith NT.115, 0.437 µM 5/6-FAM-labeled compound, dsDNA 6.1 nM–200 µM, EDBS buffer pH 8, 32 °C 1 h, scanned at 25 °C, at least two independent experiments, read-out: Binding constant, double-stranded DNA (MST)
Procedure: as §1, §2, §3

[3] = test system: MDA-MB-231 or HB-2 cell lines; experiment: Cytotoxicity assay: MTT; format: cell-based, human; conditions: 10 µM; MTT, Figure S2; HB-2 and MDA-MB-231
Procedure: Cell viability against cell-penetrating compounds was detected by the MTT assay. The HB2 and MDA-MB-231 cells were seeded into 96-well plates at a density of 5 × 10^3/well and 7 × 10^3/well, respectively, and incubated in complete medium (100 µL/well) for 48 h. […] Cells incubated in media without any test compounds were used as control. After incubation, medium containing test compounds was removed, and 225 µL fresh medium with 25 µL 3-(4,5-dimethylthiazol-2-yl)-2,5-diphenyltetrazolium bromide (MTT) was added (0.5 mg/mL per well). After incubation at 37 °C for 4 h, supernatants were removed, and the formazan crystals were dissolved overnight with dimethyl sulfoxide (DMSO; 150 µL/well). Results were analyzed using a microplate reader (SPECTROstar Nano, BMG LABTECH, Ortenberg, Germany) at 570 nm and 690 nm.

HB2 and MDA-MB-231 cells [4] = experiment: Transfection with pmaxGFP plasmid and cytotoxicity of plasmid:compound complexes; format: cell-based, human; conditions: pmaxGFP:compound complex 4.62 × 10^−10 M
Text: Figure 10 (A) Fluorescence imaging of HB-2 and MDA-MB-231 cells transfected with pmaxGFP plasmid mixed with compounds 5, 13, 14, or the commercially available transfection reagent (control). (B) Cytotoxicity of plasmid pmaxGFP:compound complex in HB2 and MDA-MB-231 cells at the concentration of the complex equal to 4.62 × 10^−10 M.
In this experiment, second-generation compounds (compounds 5, 13, and 14) were used as transfection reagents. See transfection procedure in methodology below. After gene expression, the medium was removed and cells were lysed with 0.5 M NaOH (100 µL/well), and the fluorescence intensity was analyzed using a microplate reader at excitation and emission wavelengths of 488 and 510 nm, respectively.
In this experiment, second-generation (GO2)n compounds (compounds 5, 13, and 14) were used as transfection reagents. HB2 and MDA-MB-231 were seeded in 96-well plates at a density of 5 × 10^3/well and 7 × 10^3/well in complete medium and grown until 60–70% confluency. […] The DNA concentration was determined using UV readout at 260/280 nm. […] Results were observed by fluorescence microscopy.

HB2 and MDA-MB-231 cells [5] = experiment: Cytotoxicity assay CCK-8; format: cell-based, human; conditions: CCK8, Figure S5; 1–100 µM; 2 h or 24 h
Procedure: Cell viability against cell-penetrating peptidomimetics was detected using the cell counting kit-8 (CCK-8) assay (Sigma Aldrich, Poznan, Poland). The HB2 and MDA-MB-231 cells were seeded into 96-well plates at a density of 5 × 10^3/well and 7 × 10^3/well, respectively, and incubated in complete medium (100 µL/well) for 48 h. Then, the medium was replaced with fresh medium (100 µL/well), and solutions of compounds at various concentrations (1, 5, 10, 20, 50, and 100 µM) were added; the cells were incubated for 2 h or 24 h. Cells incubated in media without any additives were used as control. After incubation, 10 µL/well of 2-(2-methoxy-4-nitrophenyl)-3-(4-nitrophenyl)-5-(2,4-disulfophenyl)-2H-tetrazolium, monosodium salt (WST-8) reagent was added according to the manufacturers’ instructions, and the mixture was incubated at 37 °C for 4 h. Cell viability was analyzed on the basis of formazan absorbance using a microplate reader (SPECTROstar Nano, BMG LABTECH, Ortenberg, Germany) at 450 nm.
Table 1S. Minimal charge to ratio (N/P) of each compoun d for efficient complexation with
DNA. *minimal N/P ratio resulting in effective complex formation based on EMSA. **ND ‐
No Sequence Minimal N/P ratio*
9 O2Oc‐[Dap(HO2)]6‐O2Oc‐NH2 No binding
Figure 5S. CCK8 cytotoxicity assay performed for three compounds (5, 13, and 14). Two
different cell lines were used: A) HB‐2 and B) MDA‐MB‐231 […]

| Molecule | Kd (ssDNA (76 nt) fragment) | Cell membrane crossing and localization, in words (HB2 and MDA-MB-231 cells [1]; 10 µM, fluorescence microscopy, HB2 or MDA-MB-231 cells) | Cell Permeablility (Target): cellular localization (HB2 and MDA-MB-231 cells [1]; fluorescence microscope Olympus IX51, 10 µM fluorescently labeled compound, DAPI nucleus staining) | Kd [2] | Cytotoxicity at the concentration used in the cell experiments, in words [3] | Post-transfection cytotoxicity (HB2 and MDA-MB-231 cells [4]) | Cytotoxicity (CCK-8), in words (HB2 and MDA-MB-231 cells [5]) |
| --- | --- | --- | --- | --- | --- | --- | --- |
| 5′,6-FAM-O2Oc-(Arg)6-O2Oc-NH2 [1a] | 0.02 ± 0.04 µM | partially visible in the cytoplasm in the form of granules | cytoplasm | 7.4 ± 0.1 µM | slightly cytotoxic |  |  |
| N=C(N)NCCOCCOCC(=O)NC[C@H](NC(=O)COCCOCCN)C(=O)N[C@@H](CNC(=O)COCCOCCNC(=N)N)C(=O)N[C@@H](CNC(=O)COCCOCCNC(=N)N)C(=O)N[C@@H](CNC(=O)COCCOCCNC(=N)N)C(=O)N[C@@H](CNC(=O)COCCOCCNC(=N)N)C(=O)N[C@@H](CNC(=O)COCCOCCNC(=N)N)C(=O)N[C@@H](CNC(=O)COCCOCCNC(=N)N)C(=O)N[C@@H](CNC(=O)COCCOCCNC(=N)N)C(=O)NCCOCCOCC(N)=O [compound 14, O2Oc-[Dap(GO2)]8-O2Oc-NH2] |  |  |  |  |  | 30% | low cytotoxicity |
